The record followed here is PMC6291738, “Identification of novel HIV-1-derived HLA-E-binding peptides” (Immunology Letters, 2018).

In experiment [1] the test system is CD8+ T cells of HIV-1-infected patients. Put plainly: Search for PM9-specific HLA-E-restricted CD8+ T-cell responses in natural HIV-1 infection. The format is cell-based, human. The note with it: PBMC of 32 treatment-naïve patients chronically infected with HIV-1; barely detectable response. The text has this:
Cryopreserved PBMCs from 32 treatment-naïve Japanese individuals chronically infected with HIV-1 subtype B were recruited from the National Center for Global Health and Medicine. All volunteers gave written informed consent before participation. The study was approved by the ethics committees of Kumamoto University and the National Center for Global Health and Medicine. Informed consent was obtained from all individuals according to the Declaration of Helsinki. Plasma and PBMCs were separated from whole blood. HLA types of the individuals were determined by standard sequence-based genotyping.
So far, we were unable to confirm existence of vaccine- or natural HIV-1 infection-elicited CD8^+ T lymphocytes recognizing HIV-1-derived peptides through their TCR and this is not for lack of trying. […] Since humans infected with M. tuberculosis have readily detectable CD8^+ T cells specific for HLA-E-presented M. tuberculosis peptides, perhaps search for such HLA-E-restricted HIV-1-specific CD8 T cells in dually HIV-1- and M. tuberculosis co-infected individuals might yield some interesting results.

The target of experiment [2] is T1, HLA-E*01:03 (Homo sapiens, UniProt P13747). Put plainly: Single-chain peptide-β2-microglobulin-MHC-E trimer stabilization assay, HEK 293T cells, HLA-E*01:03. It counts as cell-based. Details: expressed in transfected cells. Conditions: transiently transfected HEK 293T cells. An excerpt: (§1) The chimeric genes coding for the single-chain peptide-β2-microblobuline-MHC-E trimers were constructed as described previously. Briefly, the DNA fragment coding the tested peptide was inserted downstream of the fragment coding for the signal sequence of HLA-E*01:01 followed by coding sequences for a flexible linker [G4S]4, β2-microglobulin and the desired heavy chain of MHC-E. […] to accommodate for the flexible linker. The assembled plasmids were then transfected into HEK 293 T cells maintained between 10% and 90% confluency at 37 °C, 5% CO2 in DMEM (Life Technologies) supplemented with 10% FBS (SeraLabs), and 50 units/ml Penicillin/50 μg/ml Streptomycin (Life Technologies). Transfections were carried out in 6-well plates using GeneJuice (Millipore) as per the manufacturer’s instructions.
To further confirm PM9-interaction with the MHC-E molecules, we employed an assay based on cell-surface stabilization of single-chain peptide-β2-microblobuline-MHC-E trimers. Briefly, a DNA fragment coding for the tested peptide, here PM9, was inserted downstream of an HLA-E leader peptide and was followed by flexible [G4S]4 linker, β2-microblobuline and Y84 A point-mutated MHC-E heavy chain, which accommodated the flexible linker (Fig. 1B left). […] From these experiments, we concluded that the PM9 peptide bound to HLA-E molecules, and stabilized and increased the HLA-E expression on the cell surface.
Fig. 2 Identification of HLA-E-binding peptides in a single-chain trimer stabilization assay. A single chain peptide-β2-microglobuline-MHC-E heavy chain trimer stabilization assay was employed to determine the candidate 9-mer peptide binding to HLA-E*01:03 (brown line) and compared to that induced by VL9 (yellow area) and irrelevant (pink area) peptide. Expression of trimer on transiently transfected into HEK 293T cells was assessed using a […] 3D12 mAb in flow cytometry. Please see gating strategy in Fig. S3.

Experiment [3] has as its system Mamu-E*02:04. Put plainly: Single-chain peptide-β2-microglobulin-MHC-E trimer stabilization assay, HEK 293T cells, Mamu-E*02:04. It counts as cell-based, rhesus macaque (Macaca mulatta). Conditions: transiently transfected HEK 293T cells; mAb 4D12.
Text: as §1
(§2) To further confirm PM9-interaction with the MHC-E molecules, we employed an assay based on cell-surface stabilization of single-chain peptide-β2-microblobuline-MHC-E trimers. Briefly, a DNA fragment coding for the tested peptide, here PM9, was inserted downstream of an HLA-E leader peptide and was followed by flexible [G4S]4 linker, β2-microblobuline and Y84 A point-mutated MHC-E heavy chain, which accommodated the flexible linker (Fig. 1B left). […]

Experiment [4] relates to CD8+ HC092 STCL cells. The format is cell-based, human. The note with it: PM9-pulsed LCL721.221 HLA-B*18:01 transfectant; volunteer 410. Here is the method: Cryopreserved PBMCs were thawed and cultures set up at 1–3 × 10^6 cells/ml in culture medium containing 1.5 μg/ml 15-mer ‘parental’ peptide and 25 ng/ml IL-7 (R & D Systems). Cultures were supplemented with 100 IU/ml IL-2 (R&D Systems) on day 3, and IL-2 plus fresh culture medium on day 7. On day 10, the cells were washed three times with culture medium, re-suspended in 1 ml of medium and placed at 37 °C, 5% CO2 for 48 h to rest prior to the ICS assay.
LCL 721.221 cell lines expressing a single HLA allele were prepulsed with corresponding peptides, added to the STCLs in a 96-well plate at 37 °C for 2 h. […]
The first-generation candidate T-cell vaccine against HIV-1 employing conserved regions of the HIV-1 proteome was tested in HIV-1-negative adults in trial HIV−CORE 002 and induced robust HIV-1-specific T-cell responses. These responses were detected by pools of 15-mer peptides overlapping by 11 amino acids across the full length of the HIV-1-derived vaccine immunogen. […] In particular, HLA restriction was determined by expanding volunteer’s PBMC with stimulatory ‘parental’ peptide […] […]

The target of experiment [5] is T1, HLA-E*01:03. Put plainly: HLA-E/peptide cell-surface stabilization (binding) assay, RMA-S cells transfected with HLA-E*01:03. It counts as cell-based. Set-up: RMA-S cells expressing HLA-E*01:01 and E*01:03 were generated by transfecting the genes into the RMA-S cell line; expressed in transfected cells; host or cells: murine TAP-deficient RMA-S cells. The note with it: PM9 positive control of the experimental day; RMA-S cells with HLA-E*01:03. Here is the method: Binding of PM9 to both HLA-E*01:01 and –E*01:03 alleles was assessed using an HLA-E/peptide cell-surface stabilization assays. Thus, murine RMA-S cells deficient in transporter associated with antigen processing (TAP) were stably transfected with one of the two HLA-E alleles together with human β2-microglobuline. Then, stabilization of HLA-E/PM9 and HLA-E/VL9 complexes was compared in peptide-titration analyses using peptide concentrations ranging from 0.01 μg/ml to 100 μg/ml by growing transfected RMA-S cells overnight at 26 °C, pulsing them with peptide for 1 h and transferring them to 37 °C for 3 additional hours. Weak half-maximal effective concentrations (EC50) of over 100 μM were indicated for the interaction of PM9 with the two HLA-E*01:01 and E*01:03 molecules (Fig. 1A).

Experiment [6] has as its target T1, HLA-E*01:03. The note with it: summary of both assays.
The target in experiment [7] is HLA-E*01:01 (Homo sapiens, UniProt P13747, G128R). Put plainly: Single-chain peptide-β2-microglobulin-MHC-E trimer stabilization assay, HEK 293T cells, HLA-E*01:01. The format is cell-based. Details: expressed in transfected cells. The note with it: transiently transfected HEK 293T cells; mAb 3D12.
Text: as §1, §2

“And” between values parts separate entries of the source, which are not always exact repeats. Equal entries are not always repeated. No end group written: not given here.

On to PEIVIYQYM [PM9], for which the “PM9-specific HLA-E-restricted CD8+ T-cell responders” value in experiment [1] was “one possible responder out of 32 patients”. Further, in experiment [2] (highest increase of the three MHC-E molecules), the “HLA-E*01:03 single-chain trimer MFI relative to VL9 MFI” value is on record as “approximately half of the VL9 MFI”. The “HLA-E*01:03 single-chain trimer surface stabilization” value in experiment [2] (mAb 3D12, compared with VL9 and irrelevant peptide) is listed as “increased the mean fluorescent intensity (MFI) relative to a non-binding peptide”. Moreover, the “Mamu-E*02:04 single-chain trimer surface expression (MFI) relative to non-binding peptide” value in experiment [3] was “increased the mean fluorescent intensity (MFI) relative to a non-binding peptide”. Further, the “IFN-γ production by CD8+ HC092 STCL cells” value in experiment [4] came to 28.3%. Also, the “Cell-Surface Stabilization Index E*01:03/PM9” value in experiment [5] was 0.658 and 0.733 and 0.617 and 0.620. Also, the “HLA-E binder classification across the SCT assay and the LCL721.221-HLA-E*01:03 assay (MFI over 4000)” value in experiment [6] is “both the SCT assay and over 4000 MFI in the LCL721.221-HLA-E*01:03 assay”. Also, the “HLA-E*01:01 single-chain trimer surface expression (MFI) relative to non-binding peptide” value in experiment [7] is “increased the mean fluorescent intensity (MFI) relative to a non-binding peptide”.
